Experimental data: US20190298717A1 (BOARD OF REGENTS, THE UNIVERSITY OF TEXAS SYSTEM, priority 2016, published 2019)
Entries after “also recorded” stand apart in the source; their conditions may differ.

Tests used:
SH-SY5Y cells [1] = test: H2O2-EC50 of hydralazine and its analogs (protection from H2O2 stress); format: cell-based; settings: Homo sapiens
Procedure: To generate intracellular aldehydes, the inventors treated human neuroblastoma cell line (SH-SY5Y) with 100 μM hydrogen peroxide (H2O2) for 24 h. Carbonyl groups were quantified using 2,4-DNPH (dinitrophenylhydrazine) assay.
Cell Viability and Cytotoxicity Assay. Cell growth was analyzed using the MTT cell viability assay. Briefly, at the end of incubation/treatment, MTT reagent was diluted in culture medium and aliquoted into each well. After incubation for 2 hours, the medium was aspirated and DMSO was aliquoted into each well to disrupt the cells and dissolve the intracellular MTT dyes. Absorbance was read at 570 nm wavelength in a 96-well plate reader. Cell toxicity was detected using a LDH cell toxicity assay kit (Promega, Fitchburg Wis.). This is a coupled enzymatic assay that detects a visible color signal initially described by Nachlas et. al. The reagent contained excess concentrations of lactate and NAD+as substrates to drive the LDH reaction and produce NADH. In the presence of diaphorase, NADH drives the enzyme-catalyzed conversion of iodonitro-tetrazolium violet to a red formazan product. Briefly, DMEM medium was withdrawn from each well of the plate after treatment and briefly centrifuged to get rid of floating cells or cell debris. Then, the medium supernatant was mixed with equal volume of substrate/enzyme mixture included in the kit (lactate, NAD+, diaphorase and iodonitro-tetrazolium violet), followed by incubation at room temperature for 15 minutes before the addition of acetic acid to cease the reaction. The absorbance was read at 490 nm in a 96-well plate reader. […] Cell viability assay was performed using CellTiter-Glo assay.

SH-SY5Y cells [2] = test: Mitochondrial membrane potential (TMRE); format: cell-based, human; settings: hydralazine 0, 10, 20 μM; isoniazid 20 μM
Procedure: Cells were stained by TMRE to tag active mitochondria. Florescence signal was quantified by Flow Jo software. […] ATP levels were measured by bioluminescent detection of luciferase activity. All data are presented normalized to cell number.
The mitochondrial membrane potential was measured as an indicator of cellular energetics and ATP content.

C. elegans = test: Rotenone stress test in worms; format: in vivo; settings: in vivo
Text: The inventors again used rotenone to elicit PD-like changes.
Rotenone stress test. […] After 3 days young adult worms were transferred to fresh NGM plates either preloaded with rotenone alone or rotenone plus any of the abovementioned compounds. Every worm was subjected to prodding test with a worm pick every day. A worm was scored as dead when not responding to three repeated proddings. Survival curve was plotted using Prism 7.

Nrf2 = settings: SH-SY5Y, 5 μM sulforaphane
Procedure: The inventors quantified Nrf2 protein in treated cells as a first step towards validating the prediction of the Nrf2 pathway.
Nrf2 phosphorylation on serine 40 is a regulatory modification required for Nrf2 translocation to nucleus and downstream protein activation.
Western Blot Analysis. Protein expression was determined by Western blot analysis. Equal amount of protein from each sample was run in Tris-glycine SDS PAGE gel, followed by transferring to PVDF membrane. After blocking the membrane with 5% milk for 1 hour at room temperature, the membrane was incubated further for 2 hours with antibodies specific for target proteins: Nrf2, pNrf2(S40) from Novus (Littleton, Colo.); Keap1, HO-1, NQO1, GCLc, GCLm and lamin B1 from Cell Signaling (Danvers, Mass.); GAPDH from Santa Cruz (Dallas, Tex.); β-Actin from Thermo Fisher (Waltham, Mass.). The membrane was subsequently incubated with species-specific HRP-conjugated secondary antibody followed by incubation with chemiluminescence substrate and imaging. The band intensity of each of the target proteins was quantified using ImageQuant software (GE Healthcare, Sweden). Western blot analysis on worm lystaes was done similarly. […] Equal amounts of protein were run on the gel and SKN-1 protein level was detected using anti-GFP antibody.
Cell Fractionation. Nuclear and cytoplasmic fractions were separated using the protocol and NE-PER Nuclear and Cytoplasmic Extraction Reagents provided by […]. Briefly, the cells were harvested and washed with ice-cold PBS buffer. The cells were resuspended in ice-cold CER-I buffer and incubated on ice for 10 minutes, followed by addition of CER-II buffer and incubation for one more minute on ice. The lysate was centrifuged at 16,000 g for 5 minutes. The supernatant was the cytoplasmic fraction. The pellet obtained was lysed in ice-cold NER buffer to obtain nuclear protein fractions.

EC50 (SH-SY5Y cells [1])	SMILES	further results
4.32 µM	C#CCOc1nnc(NN)c2ccccc12 [1-Hydrazinyl-4-(prop-2-yn-1-yloxy)phthalazine]	
≥ 20 µM	Oc1nnc(Cl)c2ccccc12 [4-Chlorophthalazin-1-ol]	
≥ 10 µM	NNc1nnc(O)c2ccccc12 [4-Hydrazinylphthalazin-1-ol, 4-Hydrazinylphthalazin-1-ol]	
≥ 50 µM	Cc1nc2c3ccccc3c(NN)nn2n1 [6-Hydrazinyl-2-methyl-[1,2,4]triazolo[5,1-a]phthalazine]	
≥ 50 µM	NNC(=O)c1ccncc1 [Isonicotinohydrazide]	mitochondrial membrane potential / mitochondrial function (TMRE) (SH-SY5Y cells [2]): did not have a positive effects on mitochondrial function
≥ 50 µM	O=c1[nH]ncc2ccccc12 [Phthalazin-1(2H)-one]	

Further lines, the compound ahead of its results:

SMILES	EC50 (SH-SY5Y cells [1])	further results
CN(C)Nc1nncc2ccccc12	≥ 50 µM	
NNc1nnc(Cl)c2ccccc12 [1-Chloro-4-hydrazinyl-phthalazine, 1-Chloro-4-hydrazinylphthalazine]	≥ 20 µM	
[Cl-].[Na+] [NaCl]		protection against rotenone-induced death (C. elegans): No protection; also recorded: did not protect worms
C[S+]([O-])CCCCN=C=S (centres unmarked) [sulforaphane]		phosphorylation and nuclear localization of Nrf2 (positive control) (Nrf2): caused similar changes
